These results are taken from patent publication US8796256B2 (Janssen Pharmaceutica NV, priority 2010, dated 2014).

For the assay, the target named is T1, ERR1 (also known as ERR-α or ERR-1) (Homo sapiens, UniProt P11474).
T1 sequence (P11474 193-421 limits assumed): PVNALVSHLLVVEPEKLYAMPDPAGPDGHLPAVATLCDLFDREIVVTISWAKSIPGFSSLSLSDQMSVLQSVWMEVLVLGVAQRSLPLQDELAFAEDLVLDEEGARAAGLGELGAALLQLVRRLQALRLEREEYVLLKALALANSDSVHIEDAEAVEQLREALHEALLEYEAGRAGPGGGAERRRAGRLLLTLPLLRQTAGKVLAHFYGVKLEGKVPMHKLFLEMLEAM
The assay can be described thus: TR-FRET assay (disruption of co-activator peptide binding to ERR1 LBD). The class given is biochemical. To be noted: 6 nM 6His-ERR1LBD, 6 nM GST-SRC-2 peptide; average of 3 independent experiments. The gist of the method:
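Homogeneous TR-FRET measuring displacement of GST-hSRC2 co-activator peptide (6 nM) from His-tagged ERR1 LBD (6 nM), detected with α-GST Eu cryptate (30 nM) and α-His-XL665 (7.5 nM). Buffer 25 mM Tris pH 8, 2.5 mM Hepes, 20 mM KCl, 1 mM DTT, 0.05 mg/mL delipidated BSA; equilibration 4-18 h at 25° C. Hyperbolic dose-response fit, mean of 3 experiments.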
(TR-FRET usually uses a lanthanide donor and a delayed reading to cut background.)
Consider `CS(=O)(=O)n1ccnc1CN1C(=O)S/C(=C\c2ccc3c(cnn3Cc3ccc(Cl)cc3C(F)(F)F)c2)C1=O` [Compound 410, (5Z)-5-({1-[4-Chloro-2-(trifluoromethyl)benzyl]-1H-indazol-5-yl}methylidene)-3-{[1-(methylsulfonyl)-1H-imidazol-2-yl]methyl}-1,3-thiazolidine-2,4-dione], for which the EC50 (as a rule, the midpoint of the concentration-response curve) amounted to 25 nM.

In turn, `NC1(CCN2C(=O)S/C(=C\c3ccc4c(cnn4Cc4ccc(C(F)(F)F)cc4C(F)(F)F)c3)C2=O)CCOCC1` [Compound 313, (5Z)-3-[2-(4-Aminotetrahydro-2H-pyran-4-yl)ethyl]-5-({1-[2,4-bis(trifluoromethyl)benzyl]-1H-indazol-5-yl}methylidene)-1,3-thiazolidine-2,4-dione] came in with an EC50 of 700 nM. The compound `O=C1S/C(=C\c2ccc3c(cnn3Cc3ccc(C(F)(F)F)cc3C(F)(F)F)c2)C(=O)N1C[C@@H]1CNCCO1` [Compound 195, (5Z)-5-({1-[2,4-Bis(trifluoromethyl)benzyl]-1H-indazol-5-yl}methylidene)-3-[(2S)-morpholin-2-ylmethyl]-1,3-thiazolidine-2,4-dione] came in with an EC50 of 61 nM. For `N=C(N)NOCCN1C(=O)S/C(=C\c2ccc3c(ccn3Cc3ccc(Cl)cc3C(F)(F)F)c2)C1=O` [Compound 257, 1-{2-[(5Z)-5-({1-[4-Chloro-2-(trifluoromethyl)benzyl]-1H-indol-5-yl}methylidene)-2,4-dioxo-1,3-thiazolidin-3-yl]ethoxy}guanidine], a half-maximal response (EC50) required 74 nM. The compound `N=C(N)NOCCN1C(=O)S/C(=C\c2ccc3c(cnn3Cc3ccc(C(F)(F)F)cc3C(F)(F)F)c2)C1=O` [Compound 103, 1-{2-[(5Z)-5-({1-[2,4-Bis(trifluoromethyl)benzyl]-1H-indazol-5-yl}methylidene)-2,4-dioxo-1,3-thiazolidin-3-yl]ethoxy}guanidine] displayed a half-maximal effective concentration (EC50) of 43 nM. Regarding `N#Cc1ccc(Cn2ncc3cc(/C=C4\SC(=O)N(CC(=O)O)C4=O)ccc32)c(C(F)(F)F)c1` [Compound 346, [(5Z)-5-({1-[4-Cyano-2-(trifluoromethyl)benzyl]-1H-indazol-5-yl}methylidene)-2,4-dioxo-1,3-thiazolidin-3-yl]acetic acid], the EC50 turned out to be 579 nM.

`O=C1S/C(=C\c2ccc3c(cnn3Cc3ccc(Cl)cc3C(F)(F)F)c2)C(=O)N1CCN1CCNS1(=O)=O` [Compound 337, (5Z)-5-({1-[4-Chloro-2-(trifluoromethyl)benzyl]-1H-indazol-5-yl}methylidene)-3-[2-(1,1-dioxido-1,2,5-thiadiazolidin-2-yl)ethyl]-1,3-thiazolidine-2,4-dione]: a half-maximal response (EC50) required 47 nM. As to `CN(C)CCN1C(=O)S/C(=C\c2ccc3c(cnn3Cc3ccc(F)cc3C(F)(F)F)c2)C1=O` [Compound 5, (5Z)-3-[2-(Dimethylamino)ethyl]-5-[(1-{[4-fluoro-2-(trifluoromethyl)phenyl]methyl}-1H-indazol-5-yl)methylidene]-1,3-thiazolidine-2,4-dione], the EC50 came out at 180 nM. To `O=C1S/C(=C\c2ccc3c(cnn3Cc3ccc(Cl)cc3C(F)(F)F)c2)C(=O)N1CCN1CCC1` [Compound 120, (5Z)-3-(2-Azetidin-1-ylethyl)-5-({1-[4-chloro-2-(trifluoromethyl)benzyl]-1H-indazol-5-yl}methylidene)-1,3-thiazolidine-2,4-dione] belongs 220 nM; to `CS(=O)(=O)NN1C(=O)S/C(=C\c2ccc3c(cnn3Cc3ccc(Cl)cc3C(F)(F)F)c2F)C1=O` [Compound 370, N-[(5Z)-5-({1-[4-Chloro-2-(trifluoromethyl)benzyl]-4-fluoro-1H-indazol-5-yl}methylidene)-2,4-dioxo-1,3-thiazolidin-3-yl]methanesulfonamide], 48 nM; to `CNN1C(=O)S/C(=C\c2ccc3c(cnn3Cc3ccc(Cl)cc3C(F)(F)F)c2)C1=O` [Compound 358, (5Z)-5-({1-[4-Chloro-2-(trifluoromethyl)benzyl]-1H-indazol-5-yl}methylidene)-3-(methylamino)-1,3-thiazolidine-2,4-dione], 22 nM. In turn, `O=C1S/C(=C\c2ccc3c(cnn3Cc3ccc(C(F)(F)F)cc3C(F)(F)F)c2)C(=O)N1C[C@@H]1CCCN1` [Compound 83, (5Z)-5-({1-[2,4-Bis(trifluoromethyl)benzyl]-1H-indazol-5-yl}methylidene)-3-[(2S)-pyrrolidin-2-ylmethyl]-1,3-thiazolidine-2,4-dione] came in with a 50% effective concentration (EC50) of 82 nM.

Compound `O=C1S/C(=C\c2ccc3c(cnn3Cc3ccc(Cl)cc3C(F)(F)F)c2)C(=O)N1CCNS(=O)(=O)c1ccccc1` [Compound 391, N-{2-[(5Z)-5-({1-[4-Chloro-2-(trifluoromethyl)benzyl]-1H-indazol-5-yl}methylidene)-2,4-dioxo-1,3-thiazolidin-3-yl]ethyl}benzenesulfonamide] had a half-maximal effective concentration (EC50) of 215 nM.

In the case of `CCNCCN1C(=O)S/C(=C\c2ccc3c(cnn3Cc3ccc(Cl)cc3C(F)(F)F)c2)C1=O` [Compound 47, (5Z)-5-({1-[4-Chloro-2-(trifluoromethyl)benzyl]-1H-indazol-5-yl}methylidene)-3-[2-(ethylamino)ethyl]-1,3-thiazolidine-2,4-dione], the 50% effective concentration (EC50) worked out at 17 nM. Compound `COc1ccc(Cn2ncc3cc(/C=C4\SC(=O)N(CCN5CCCCC5)C4=O)ccc32)c(C(F)(F)F)c1` [Compound 11, (5Z)-5-[(1-{[4-(Methyloxy)-2-(trifluoromethyl)phenyl]methyl}-1H-indazol-5-yl)methylidene]-3-(2-piperidin-1-ylethyl)-1,3-thiazolidine-2,4-dione] returned an EC50 of 27 nM. The compound `O=C1S/C(=C\c2ccc3c(cnn3Cc3ccc(Cl)cc3C(F)(F)F)c2)C(=O)N1C[C@@H]1CCCNC1` [Compound 95, (5Z)-5-({1-[4-Chloro-2-(trifluoromethyl)benzyl]-1H-indazol-5-yl}methylidene)-3-[(3R)-piperidin-3-ylmethyl]-1,3-thiazolidine-2,4-dione] registered a 50% effective concentration (EC50) of 57 nM.

Consider `O=C(O)CN1C(=O)S/C(=C\c2ccc3c(ccn3Cc3ccc(F)cc3C(F)(F)F)c2)C1=O` [Compound 255, [(5Z)-5-({1-[4-Fluoro-2-(trifluoromethyl)benzyl]-1H-indol-5-yl}methylidene)-2,4-dioxo-1,3-thiazolidin-3-yl]acetic acid], for which the response was half-maximal at 1020 nM (EC50).

As for `C[C@H](N)CN1C(=O)S/C(=C\c2ccc3c(cnn3Cc3ccc(C(F)(F)F)cc3C(F)(F)F)c2)C1=O` [Compound 81, (5Z)-3-[(2S)-2-Aminopropyl]-5-({1-[2,4-bis(trifluoromethyl)benzyl]-1H-indazol-5-yl}methylidene)-1,3-thiazolidine-2,4-dione], the concentration giving a half-maximal response (EC50) is 51 nM. As for `O=C1S/C(=C\c2ccc3c(cnn3Cc3ccc(C(F)(F)F)cc3C(F)(F)F)c2)C(=O)N1C1CN2CCC1CC2` (stereo not shown) [Compound 63, (5Z)-3-(1-Azabicyclo[2.2.2]oct-3-yl)-5-({1-[2,4-bis(trifluoromethyl)benzyl]-1H-indazol-5-yl}methylidene)-1,3-thiazolidine-2,4-dione], the EC50 was determined as 20 nM.

Compound `COc1ccc(Cn2ncc3cc(/C=C4\SC(=O)N(CCN5CCCC5)C4=O)ccc32)c(C(F)(F)F)c1` [Compound 17, (5Z)-5-({1-[4-Methoxy-2-(trifluoromethyl)benzyl]-1H-indazol-5-yl}methylidene)-3-(2-pyrrolidin-1-ylethyl)-1,3-thiazolidine-2,4-dione] yielded a half-maximal effective concentration (EC50) of 46 nM.

With `NC1(CN2C(=O)S/C(=C\c3ccc4c(cnn4Cc4ccc(Cl)cc4C(F)(F)F)c3)C2=O)CCOCC1` [Compound 308, (5Z)-3-[(4-Aminotetrahydro-2H-pyran-4-yl)methyl]-5-({1-[4-chloro-2-(trifluoromethyl)benzyl]-1H-indazol-5-yl}methylidene)-1,3-thiazolidine-2,4-dione], the 50% effective concentration (EC50) was 5 nM. `CN1C[C@@H](F)[C@H](N2C(=O)S/C(=C\c3ccc4c(cnn4Cc4ccc(Cl)cc4C(F)(F)F)c3)C2=O)C1` (relative stereo) [Compound 319, (5Z)-5-({1-[4-Chloro-2-(trifluoromethyl)benzyl]-1H-indazol-5-yl}methylidene)-3-[trans-4-fluoro-1-methylpyrrolidin-3-yl]-1,3-thiazolidine-2,4-dione]: the half-maximal effective concentration (EC50) turned out to be 21 nM.

In the case of `COC(=O)C(Cc1cn(C)cn1)N1C(=O)S/C(=C\c2ccc3c(cnn3Cc3ccc(Cl)cc3C(F)(F)F)c2)C1=O` (stereo not shown) [Compound 214, Methyl 2-[(5Z)-5-({1-[4-chloro-2-(trifluoromethyl)benzyl]-1H-indazol-5-yl}methylidene)-2,4-dioxo-1,3-thiazolidin-3-yl]-3-(1-methyl-1H-imidazol-4-yl)propanoate], the midpoint of the response, the EC50, lay at 44 nM. To `CC[C@H](N)CN1C(=O)S/C(=C\c2ccc3c(cnn3Cc3ccc(Cl)cc3C(F)(F)F)c2)C1=O` [Compound 154, 3-[(2S)-2-Aminobutyl]-(5Z)-5-({1-[4-chloro-2-(trifluoromethyl)benzyl]-1H-indazol-5-yl}methylidene)-1,3-thiazolidine-2,4-dione] belongs 17 nM; to `O=C1S/C(=C\c2ccc3c(cnn3Cc3ccc(Cl)cc3C(F)(F)F)c2)C(=O)N1CC1CCNCC1` [Compound 130, (5Z)-5-({1-[4-Chloro-2-(trifluoromethyl)benzyl]-1H-indazol-5-yl}methylidene)-3-(piperidin-4-ylmethyl)-1,3-thiazolidine-2,4-dione], 33 nM.
